The values below come from paper PMC12263422, “Cryo-EM structure of the human THIK-1 K2P K^+ channel reveals a lower Y gate regulated by lipids and anesthetics” (Nature Structural & Molecular Biology, 2025).

The assay addresses T1, Human K2P13.1 THIK-1 (WT) (Homo sapiens, UniProt Q9HB14).
T1 construct: expressed in transfected cells; host or cells: Xenopus oocytes (mRNA injection)
T1 sequence (Q9HB14 1-408): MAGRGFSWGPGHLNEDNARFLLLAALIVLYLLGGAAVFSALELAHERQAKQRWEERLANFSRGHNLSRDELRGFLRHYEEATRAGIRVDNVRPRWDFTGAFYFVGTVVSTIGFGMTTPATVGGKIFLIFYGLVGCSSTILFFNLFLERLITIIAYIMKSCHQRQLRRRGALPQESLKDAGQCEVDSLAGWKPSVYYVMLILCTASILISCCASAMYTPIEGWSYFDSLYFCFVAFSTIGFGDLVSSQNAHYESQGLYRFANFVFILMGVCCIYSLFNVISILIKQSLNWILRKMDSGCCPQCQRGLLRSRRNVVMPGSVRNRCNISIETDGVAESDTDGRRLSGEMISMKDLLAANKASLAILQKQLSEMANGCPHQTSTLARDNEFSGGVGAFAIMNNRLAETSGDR
Description: Macroscopic inside-out excised patch recordings from Xenopus oocytes expressing WT THIK-1; compounds applied to the intracellular side. The assay is classed as cell-based. The settings on record: for Fold activation: THIK-1 WT (unstimulated); for inhibition at 152 µM: halothane 0.152 mM; for inhibition at 304 µM: halothane 0.304 mM; for inhibition at 1520 µM: halothane 1.52 mM; for inhibition at 3040 µM: halothane 3.04 mM; for inhibition at 15200 µM: halothane 15.2 mM. An excerpt: Human K2P13.1 THIK-1 (GenBank accession number: NM_022054) and human K2P12.1 THIK-2 (NM_022055.1) were used in this study. For functional expression studies, the respective K^+ channel subtype coding sequences were subcloned into the oocyte expression vector pSGEM or the dual-purpose expression vector pFAW[41] and verified by sequencing. All mutant channels were obtained by site-directed mutagenesis and verified by sequencing. To increase surface expression and macroscopic currents, measurements of THIK-2 channels used a mutated ER retention motif, (R11A R12A R14A R15A R16A; THIK-2*)[20]. Vector DNA was linearized with NheI or MluI, and mRNA was synthesized in vitro using the SP6 or T7 AmpliCap Max High Yield Message Maker Kit (Cellscript, USA) or HiScribe T7 ARCA mRNA Kit (New England Biolabs).
Two-electrode voltage–clamp (TEVC) studies were performed in Xenopus oocytes. All animal use conformed to the Guide for the Care and Use of Laboratory Animals (NIH Publication 85–23), and all experiments using Xenopus toads were approved by the local ethics panels. Oocytes were stored at 17 °C in ND96 recording solution composed of (in mM): 96 NaCl, 2 KCl, 1.8 CaCl2, 1 MgCl2, 5 HEPES (pH 7.5 adjusted with NaOH and HCl), supplemented with Na-pyruvate (275 mg L^–1), theophylline (90 mg L^–1) and gentamicin (50 mg L^–1). Oocytes were injected with 1 ng mRNA for WT or mutant channels, and were incubated for 24–48 h at 17 °C. Two-electrode voltage clamp recordings were then performed as previously described[42],[43]. For macroscopic patch–clamp measurements, oocytes were obtained as described above incubated at 17 °C in a solution containing (mM): 54 NaCl, 30 KCl, 2.4 NaHCO3, 0.82 MgSO4 ×7 H2O, 0.41 CaCl2, 0.33 Ca(NO3)2 ×4 H2O and 7.5 TRIS (pH 7.4 adjusted with NaOH and HCl) for 1–4 days before use. Excised patch recordings in inside-out configuration conditions were performed at room temperature. Patch pipettes were made from thick-walled borosilicate glass GB 200TF-8P (Science Products), had resistances of 0.2–0.5 MΩ (tip diameter, 10–25 µm) and filled with a pipette solution (in mM): 120 KCl, 10 HEPES and 3.6 CaCl2 (pH 7.4 adjusted with KOH and HCl). Intracellular bath solutions and compounds were applied to the cytoplasmic side of excised patches for the various K^+ channels through a gravity flow multi-barrel pipette system. The intracellular solution had the following composition (in mM): 120 KCl, 10 HEPES, 2 EGTA and 1 pyrophosphate (pH adjusted with KOH and HCl). Currents were recorded with an EPC10 amplifier (HEKA Electronics) and sampled at 10 kHz or higher, with filtering set to 3 kHz (–3 dB) or higher, as appropriate for sampling rate. For measurements of GPCR activation, whole-cell currents were recorded for THIK-1 in transiently transfected HEK-293 cells. Cells were stimulated by a ramp protocol between −100 and +60 mV (holding potential, −80 mV). The pipette solution was composed of (in mM): 140 KCl, 2 MgCl2, 1 CaCl2, 2.5 EGTA and 10 HEPES (pH 7.3 adjusted with KOH and HCl). The extracellular bath solution had the following composition (in mM): 135 NaCl, 5 KCl, 2 MgCl2, 2 CaCl2, 10 glucose and 10 HEPES pH (pH 7.3 adjusted with NaOH and HCl). Oxotremorine M (Oxo-M) was added to extracellular bath solution to obtain the final concentration. Single-channel currents were recorded with an Axopatch 200B amplifier through a Digidata 1440A digitizer (Molecular Devices). Data were filtered at 2 kHz and recorded at a 200-kHz sampling rate with the program Clampex (Molecular Devices). Pipette solution and bath solution for cell-attached recordings contained (in mM): 140 KCl, 2 MgCl2, 1 CaCl2 and 10 HEPES (pH 7.4 adjusted with KOH and HCl). For inside-out recordings, the bath solution contained (in mM): 140 KCl, 2 MgCl2, 1 CaCl2 and 10 HEPES (pH 7.2 adjusted with KOH and HCl). All experiments were conducted at room temperature. […]

Where [1] appears, read: THIK-1 WT (TPenA), presence of 0.5 mM TPenA.
Setting [2] is: THIK-1 WT (oleoyl-CoA), 5.0 µM oleoyl-CoA.

Where “and” joins values, the source holds several entries; their conditions need not be identical. Identical values can stand only once. Like-named read-outs stand apart in the source and are kept apart here.

As to `FC(F)OC(Cl)C(F)(F)F` (centres unmarked) [Isoflurane, isoflurane], the “Inhibition (%)” value (4.9 mM Isoflurane, WT, individual recordings) is 88.353% and 81.703% and 79.557% and 81.992% and 78.205% and 79.070% and 68.116% and 80.054% and 86.809% and 87.556%. The inhibition at 242 µM by setting is: (THIK-1 WT (oleoyl-CoA), 0.242 mM isoflurane) 10.6%; (isoflurane 0.242 mM, THIK-1 WT) 33.6%. In addition, the inhibition at 485 µM amounted to 21% (THIK-1 WT (oleoyl-CoA), 0.485 mM isoflurane) and 50.2% (isoflurane 0.485 mM, THIK-1 WT). For the same compound, the inhibition at 2420 µM is, setting by setting: (THIK-1 WT (oleoyl-CoA), 2.42 mM isoflurane) 33.6%; (isoflurane 2.42 mM, THIK-1 WT) 65.3%. Also, the inhibition at 4850 µM reads like this: (THIK-1 WT (oleoyl-CoA), 4.85 mM isoflurane) 60.9%; (isoflurane 4.85 mM, THIK-1 WT) 81.1%. In addition, the inhibition at 24200 µM is, setting by setting: (THIK-1 WT (oleoyl-CoA), 24.2 mM isoflurane) 79.7%; (isoflurane 24.2 mM, THIK-1 WT) 89.5%. This compound also showed an Inhibition (THIK-1 WT (oleoyl-CoA), isoflurane concentration printed as "v" (mM)) of 4.36%. 48 µM produced 20.4% inhibition (isoflurane 0.048 mM, THIK-1 WT).

Consider `CCCCC/C=C\C/C=C\CCCCCCCC(=O)O` [linoleic acid], for which the Fold activation came out at 0.98 (1 µM linoleic acid); 1.75 (10 µM linoleic acid); 2.77 (30 µM linoleic acid); 3.38 (50 µM linoleic acid); 3.62 (100 µM linoleic acid); 4.27 (150 µM linoleic acid). In addition, where the note is “200 µM linoleic acid”, the Fold activation was 4.21. Also, the “Fold activation with 30.0 µM linoleic acid” value (THIK-1 WT, individual recordings) is 3.150 and 3.640 and 4.490 and 2.650 and 2.000 and 1.880 and 1.350 and 1.220 and 3.650 and 3.260 and 3.220; the “Fold activation with 30.0 µM linoleic acid” value (THIK-1 WT, mean) turned out to be 2.77. In addition, the EC50 by setting is: (THIK-1 WT, mean, read-out: Linoleic acid EC50) 28.5 µM; (applied intracellularly to excised patches, WT, read-out: half-maximal effective concentration (activation)) 29 ± 5 µM.

In the case of `FC(F)(F)C(Cl)Br` (centres unmarked) [halothane], under “THIK-1 WT”, 152 µM produced 11% inhibition, the inhibition at 304 µM was determined as 18.8%, 1520 µM produced 41.4% inhibition and testing at 3040 µM gave an inhibition of 57.6%. For the same compound, where the note is “THIK-1 WT”, the inhibition at 15200 µM was 83.9%. Under setting [1], the inhibition at 152 µM was determined as 6.45%, the inhibition at 304 µM came to 13%, the inhibition at 1520 µM was 23.2% and the inhibition at 3040 µM worked out at 30%. In addition, the inhibition at 15200 µM under setting [1] amounted to 57.9%. Under setting [2], this compound had an inhibition at 304 µM of 4.78%, an inhibition at 1520 µM of 19.9%, an inhibition at 3040 µM of 38.9% and an inhibition at 15200 µM of 69.3%.

Regarding `FCOC(C(F)(F)F)C(F)(F)F` [Sevoflurane, sevoflurane], the “Inhibition (%)” value (0.24 mM Sevoflurane, WT, individual recordings) was 52.54% and 40.05% and 49.45% and 28.56% and 58.12% and 60.68% and 50.30%. Besides, at 240 µM the inhibition (0.24 mM Sevoflurane, WT, mean) was 48.5%. Besides, under “THIK-1 WT, 0.023 mM sevoflurane”, the inhibition at 23 µM worked out at 14.1%. The compound also displayed an inhibition at 47 µM (THIK-1 WT, 0.047 mM sevoflurane) of 21.7%. Under “THIK-1 WT, 0.468 mM sevoflurane”, this compound returned an inhibition at 468 µM of 57.5%. Moreover, the inhibition at 2340 µM (THIK-1 WT, 2.34 mM sevoflurane) worked out at 79.5%.
